Test results from patent US4166859A, “2-Bromo-6-fluoro-N-(2-imidazolidinylidene)-benzamine and salts thereof and the use to treat hypertension” (Boehringer Ingelheim GmbH, priority 1976, dated 1979).
Structures can show the parent of a compound that is named as a salt.

Experiments:
[1] = Hygroscopicity of acid addition salts; type: physicochemical
blood pressure = experiment: Hypotensive activity (blood pressure reduction) in rabbits under urethane anesthesia, i.v.; type: in vivo; conditions: for ED (20 mm Hg): Oryctolagus cuniculus, iv, urthane anesthesia, dose producing lasting reduction of 20 mm Hg of blood pressure, arteria carotis, read-out: Hypotensive ED20 in rabbits
Experimental: The hypotensive activity of the test compounds was determined on a statistically significant number of rabbits under urthane anesthesia. The blood pressure of the test animals was continuously measured in the arteria carotis by means of a mercury manometer before and after the i.v. administration of the test compound at varying dosage levels. The ED20 was determined, that is, the dose which produced a lasting reduction of 20 mm Hg of the blood pressure.

[2] = Stomach juice secretion inhibition, method of Shay et al; conditions: rat, in vivo; dose reducing volume of stomach juice secreted by 50% and total acidity by 50%; measure of dryness of the mouth; read-out: Stomach juice secretion inhibiting ED50 in rats
Experimental: The effect on the stomach juice secretion was determined on rats by the standard test method of Shay et al, Gastroenterology 5, 43 (1943), and the ED50 was calculated for each test compound, that is, the dose which reduces the volume of stomach juice secreted over a given amount of time by 50%, and at the same time produces a 50% reduction in the total acidity of the secreted stomach juice volume.

pKa-value = type: physicochemical

SMILES	hygroscopicity [1]	other results
Fc1cccc(Br)c1N=C1NCCN1 [Hydrobromide]	hygroscopic	–
Fc1cccc(Br)c1N=C1NCCN1 [Benzoate]	slightly hygroscopic	–
Clc1cccc(Cl)c1NC1=NCCN1 [Clonidine . HCl, 2-(2,6-dichloroanilino)-2-imidazoline, reference compound]	–	ED (20 mm Hg) (blood pressure): 0.01 mg/kg; ED50 [2]: 0.04 mg/kg
Fc1cccc(Br)c1N=C1NCCN1 [Nitrate]	slightly hygroscopic	–
Fc1cccc(Br)c1N=C1NCCN1 [Tosylate]	hygroscopic	–
Fc1cccc(Br)c1N=C1NCCN1 [Citrate]	hygroscopic	–
Fc1cccc(Br)c1N=C1NCCN1 [Tartrate]	hygroscopic	–
Clc1cccc(Cl)c1NC1=NCCN1 [clonidine, 2-(2,6-dichloroanilino)-2-imidazoline]	–	antihypertensive efficacy relative to the invention compound (blood pressure; comparison with 2-bromo-6-fluoro-N-(2-imidazolidinylidene)-benzamine): equal antihypertensive efficacy
Fc1cccc(Br)c1N=C1NCCN1 [Oxalate]	hygroscopic	–
Fc1cccc(Br)c1N=C1NCCN1 [Methanesulfonate]	hygroscopic	–
Fc1cccc(Br)c1NC1=NCCN1 [2-bromo-6-fluoro-N-(2-imidazolidinylidene)-benzamine monohydrochloride]	–	ED (20 mm Hg) (blood pressure): 0.01 mg/kg; ED50 [2]: 0.1 mg/kg; pKa (pKa-value): 8.2
